Test results from paper PMC10707934, “Design and Synthesis of Novel α-Methylchalcone Derivatives, Anti-Cervical Cancer Activity, and Reversal of Drug Resistance in HeLa/DDP Cells” (Molecules, 2023).

System: not given
Assay: not given
Conditions: not given

| SMILES | melting point |
| --- | --- |
| COc1ccccc1/C=C(\C)C(=O)c1ccc(Cl)c(Cl)c1 [Compound 3l, (E)-1-(3,4-Dichlorophenyl)-3-(2-methoxyphenyl)-2-methylprop-2-en-1-one] | 92.8 to 93.6 °C |
| COc1ccc(/C=C(\C)C(=O)c2ccc(Cl)c(Cl)c2)cc1 [Compound 3m, (E)-1-(3,4-Dichlorophenyl)-3-(4-methoxyphenyl)-2-methylprop-2-en-1-one] | 70 to 71.1 °C |
| C/C(=C\c1ccc(N(C)C)cc1)C(=O)c1ccc(Cl)c(Cl)c1 [Compound 3n, (E)-1-(3,4-Dichlorophenyl)-3-(4-(dimethylamino)phenyl)-2-methylprop-2-en-1-one] | 184 to 184.8 °C |
| CCN(CC)c1ccc(/C=C(\C)C(=O)c2ccc(Cl)c(Cl)c2)cc1 [Compound 3o, (E)-1-(3,4-Dichlorophenyl)-3-(4-(diethylamino)phenyl)-2-methylprop-2-en-1-one] | 186.7 to 190.8 °C |

System: SiHa cells
Assay: MTT anti-proliferation assay, SiHa
Type: cell-based, human
Conditions: Homo sapiens, 48 h, mean ± SD
Procedure: (§1) All cell types, at a volume of 200 µL per well, were inoculated in 96-well plates at a density of 2.5 × 10^4 cells / mL and cultured for 24 h in an incubator with 5% CO2 at 37 °C. The old culture medium was replaced with 200 µL of fresh medium per well containing positive compounds, at concentrations of 1, 6.25, 12.5, 25, 50, and 100 μM. After 48 h of culture, 20 µL per well of 5 mg·mL^−1 MTT solution was added. After 4 h of culture, the old solution was discarded, and 150 µL per well of DMSO solution was added. Using an enzyme labeler (Thermo Fisher Scientific, Multiskan GO, Waltham, MA, USA), the plates were shaken for 10 min, OD values were determined at 490 nm, and the inhibition rate was calculated. Non-linear regression fitting of the cell growth rate was carried out using SPSS 23.0, and the IC50 of the compound was calculated. The inhibition rate was calculated using the formula: [(ODempty − ODtest)/(ODempty − ODnegative group)] × 100%, (ODempty blank group absorbance, ODtest absorbance of administration group, ODnegative group without cell culture medium). Each group contained six compound holes, and the experimental results averaged three trials. Complete medium containing only cells was used as the blank control; a complete medium without cells as was used as the negative control; and cisplatin, paclitaxel, and adriamycin were used as the positive controls. The concentration gradient was the same as that used for compounds 3a–3p.

| SMILES | IC50 |
| --- | --- |
| COc1cc(/C=C(\C)C(=O)c2ccc(Cl)c(Cl)c2)cc(OC)c1OC [Compound 3b, (E)-1-(3,4-Dichlorophenyl)-2-methyl-3-(3,4,5-trimethoxyphenyl)prop-2-en-1-One] | 28.4 ± 2.37 µM |
| COc1ccc(OC)c(/C=C(\C)C(=O)c2ccc(Cl)c(Cl)c2)c1 [Compound 3j, (E)-1-(3,4-Dichlorophenyl)-3-(2,5-dimethoxyphenyl)-2-methylprop-2-en-1-one] | > 100 µM |
| COc1ccccc1/C=C(\C)C(=O)c1ccc(Cl)c(Cl)c1 [Compound 3l, (E)-1-(3,4-Dichlorophenyl)-3-(2-methoxyphenyl)-2-methylprop-2-en-1-one] | 22.5 ± 1.36 µM |
| COc1ccc(/C=C(\C)C(=O)c2ccc(Cl)c(Cl)c2)cc1 [Compound 3m, (E)-1-(3,4-Dichlorophenyl)-3-(4-methoxyphenyl)-2-methylprop-2-en-1-one] | 67.7 ± 5.6 µM |
| C/C(=C\c1ccc(N(C)C)cc1)C(=O)c1ccc(Cl)c(Cl)c1 [Compound 3n, (E)-1-(3,4-Dichlorophenyl)-3-(4-(dimethylamino)phenyl)-2-methylprop-2-en-1-one] | > 100 µM |
| CCN(CC)c1ccc(/C=C(\C)C(=O)c2ccc(Cl)c(Cl)c2)cc1 [Compound 3o, (E)-1-(3,4-Dichlorophenyl)-3-(4-(diethylamino)phenyl)-2-methylprop-2-en-1-one] | > 100 µM |
| CCN(CC)c1ccc(/C=C(\C)C(=O)c2ccc(Cl)cc2Cl)cc1 [Compound 3p, (E)-1-(2,4-Dichlorophenyl)-3-(4-(diethylamino)phenyl)-2-methylprop-2-en-1-one] | > 100 µM |

System: human cervical epithelial cells H8
Assay: MTT toxicity assay, normal cervical epithelial cells H8
Type: cell-based
Conditions: Homo sapiens, Epithelial cell, 48 h, mean ± SD
Procedure: as §1

| SMILES | IC50 |
| --- | --- |
| COc1cc(/C=C(\C)C(=O)c2ccc(Cl)c(Cl)c2)cc(OC)c1OC [Compound 3b, (E)-1-(3,4-Dichlorophenyl)-2-methyl-3-(3,4,5-trimethoxyphenyl)prop-2-en-1-One] | 57.7 ± 4.7 µM |
| COc1ccc(OC)c(/C=C(\C)C(=O)c2ccc(Cl)c(Cl)c2)c1 [Compound 3j, (E)-1-(3,4-Dichlorophenyl)-3-(2,5-dimethoxyphenyl)-2-methylprop-2-en-1-one] | > 100 µM |
| COc1ccccc1/C=C(\C)C(=O)c1ccc(Cl)c(Cl)c1 [Compound 3l, (E)-1-(3,4-Dichlorophenyl)-3-(2-methoxyphenyl)-2-methylprop-2-en-1-one] | > 100 µM |
| COc1ccc(/C=C(\C)C(=O)c2ccc(Cl)c(Cl)c2)cc1 [Compound 3m, (E)-1-(3,4-Dichlorophenyl)-3-(4-methoxyphenyl)-2-methylprop-2-en-1-one] | > 100 µM |
| C/C(=C\c1ccc(N(C)C)cc1)C(=O)c1ccc(Cl)c(Cl)c1 [Compound 3n, (E)-1-(3,4-Dichlorophenyl)-3-(4-(dimethylamino)phenyl)-2-methylprop-2-en-1-one] | > 100 µM |
| CCN(CC)c1ccc(/C=C(\C)C(=O)c2ccc(Cl)c(Cl)c2)cc1 [Compound 3o, (E)-1-(3,4-Dichlorophenyl)-3-(4-(diethylamino)phenyl)-2-methylprop-2-en-1-one] | > 100 µM |
| CCN(CC)c1ccc(/C=C(\C)C(=O)c2ccc(Cl)cc2Cl)cc1 [Compound 3p, (E)-1-(2,4-Dichlorophenyl)-3-(4-(diethylamino)phenyl)-2-methylprop-2-en-1-one] | > 100 µM |

System: HeLa cells
Assay: MTT anti-proliferation assay, HeLa
Type: cell-based, human
Conditions: Homo sapiens, 48 h, mean ± SD
Procedure: as §1, with “3a–3p. […]” for “3a–3p.”

| SMILES | IC50 |
| --- | --- |
| COc1cc(/C=C(\C)C(=O)c2ccc(Cl)c(Cl)c2)cc(OC)c1OC [Compound 3b, (E)-1-(3,4-Dichlorophenyl)-2-methyl-3-(3,4,5-trimethoxyphenyl)prop-2-en-1-One] | 43.8 ± 3.68 µM |
| COc1ccc(OC)c(/C=C(\C)C(=O)c2ccc(Cl)c(Cl)c2)c1 [Compound 3j, (E)-1-(3,4-Dichlorophenyl)-3-(2,5-dimethoxyphenyl)-2-methylprop-2-en-1-one] | > 100 µM |
| COc1ccccc1/C=C(\C)C(=O)c1ccc(Cl)c(Cl)c1 [Compound 3l, (E)-1-(3,4-Dichlorophenyl)-3-(2-methoxyphenyl)-2-methylprop-2-en-1-one] | > 100 µM |
| COc1ccc(/C=C(\C)C(=O)c2ccc(Cl)c(Cl)c2)cc1 [Compound 3m, (E)-1-(3,4-Dichlorophenyl)-3-(4-methoxyphenyl)-2-methylprop-2-en-1-one] | 29.8 ± 0.98 µM |
| C/C(=C\c1ccc(N(C)C)cc1)C(=O)c1ccc(Cl)c(Cl)c1 [Compound 3n, (E)-1-(3,4-Dichlorophenyl)-3-(4-(dimethylamino)phenyl)-2-methylprop-2-en-1-one] | > 100 µM |
| CCN(CC)c1ccc(/C=C(\C)C(=O)c2ccc(Cl)c(Cl)c2)cc1 [Compound 3o, (E)-1-(3,4-Dichlorophenyl)-3-(4-(diethylamino)phenyl)-2-methylprop-2-en-1-one] | > 100 µM |
| CCN(CC)c1ccc(/C=C(\C)C(=O)c2ccc(Cl)cc2Cl)cc1 [Compound 3p, (E)-1-(2,4-Dichlorophenyl)-3-(4-(diethylamino)phenyl)-2-methylprop-2-en-1-one] | > 100 µM |
| COc1cccc2c1C(=O)c1c(O)c3c(c(O)c1C2=O)C[C@@](O)(C(=O)CO)C[C@@H]3O[C@H]1C[C@H](N)[C@H](O)[C@H](C)O1 [Doxorubicin] | 10.4 ± 1.09 µM |

System: HeLa/DDP cells
Assay: MTT anti-cisplatin-resistant cervical cancer activity, HeLa/DDP
Type: cell-based, human
Conditions: HeLa/DDP versus parental HeLa, 48 h
Procedure: as §1
To mitigate the detrimental consequences arising from the fixation of resistance reversal agents, concentrations that yielded a tumor cell proliferation rate reduction of less than 10% were selected. Consequently, the inhibitory efficacy of compound 3k against HeLa/DDP cells was assessed in conjunction with cisplatin at concentrations of 0.25, 0.5, and 1 μM. The experimental procedure employed was akin to that elucidated in Section 3.3.2. The impact of verapamil (6 μM) and 3k (0.25, 0.5, and 1 μM) on P-gp expression was ascertained via Western blot experiments, employing the same methodology delineated in Section 3.3.4.

| SMILES | resistance index (RI) |
| --- | --- |
| COc1cccc2c1C(=O)c1c(O)c3c(c(O)c1C2=O)C[C@@](O)(C(=O)CO)C[C@@H]3O[C@H]1C[C@H](N)[C@H](O)[C@H](C)O1 [Doxorubicin] | 3.68 |

Same assay, conditions: Homo sapiens; HeLa/DDP, MTT, 48 h, mean ± SD

| SMILES | IC50 |
| --- | --- |
| COc1cccc2c1C(=O)c1c(O)c3c(c(O)c1C2=O)C[C@@](O)(C(=O)CO)C[C@@H]3O[C@H]1C[C@H](N)[C@H](O)[C@H](C)O1 [Doxorubicin] | 38.3 ± 4.57 µM |

System: C33A cells
Assay: MTT anti-proliferation assay, C33A
Type: cell-based, human
Conditions: Homo sapiens, C-33-A, 48 h, mean ± SD
Procedure: as §1

| SMILES | IC50 |
| --- | --- |
| COc1cc(/C=C(\C)C(=O)c2ccc(Cl)c(Cl)c2)cc(OC)c1OC [Compound 3b, (E)-1-(3,4-Dichlorophenyl)-2-methyl-3-(3,4,5-trimethoxyphenyl)prop-2-en-1-One] | 57 ± 6.27 µM |
| COc1ccc(OC)c(/C=C(\C)C(=O)c2ccc(Cl)c(Cl)c2)c1 [Compound 3j, (E)-1-(3,4-Dichlorophenyl)-3-(2,5-dimethoxyphenyl)-2-methylprop-2-en-1-one] | 28.5 ± 3.78 µM |
| COc1ccccc1/C=C(\C)C(=O)c1ccc(Cl)c(Cl)c1 [Compound 3l, (E)-1-(3,4-Dichlorophenyl)-3-(2-methoxyphenyl)-2-methylprop-2-en-1-one] | 17.3 ± 2.24 µM |
| COc1ccc(/C=C(\C)C(=O)c2ccc(Cl)c(Cl)c2)cc1 [Compound 3m, (E)-1-(3,4-Dichlorophenyl)-3-(4-methoxyphenyl)-2-methylprop-2-en-1-one] | 35.1 ± 4.75 µM |
| C/C(=C\c1ccc(N(C)C)cc1)C(=O)c1ccc(Cl)c(Cl)c1 [Compound 3n, (E)-1-(3,4-Dichlorophenyl)-3-(4-(dimethylamino)phenyl)-2-methylprop-2-en-1-one] | 23.4 ± 3.42 µM |
| CCN(CC)c1ccc(/C=C(\C)C(=O)c2ccc(Cl)c(Cl)c2)cc1 [Compound 3o, (E)-1-(3,4-Dichlorophenyl)-3-(4-(diethylamino)phenyl)-2-methylprop-2-en-1-one] | 35 ± 4.93 µM |
| CCN(CC)c1ccc(/C=C(\C)C(=O)c2ccc(Cl)cc2Cl)cc1 [Compound 3p, (E)-1-(2,4-Dichlorophenyl)-3-(4-(diethylamino)phenyl)-2-methylprop-2-en-1-one] | 41.4 ± 5.42 µM |
